This data set deals with Primary hepatocytes. As to the kind of experiment: in vitro exposure of primary hepatocytes to volatile HCFCs, enzyme leakage (LDH and AST). In kind it is cell-based. As to conditions: 10,000, 100,000 and 500,000 ppm, 24 hours. The source says: Any adherent cell line or adherent primary cell type can be used in this system. Adherent cell lines may attach to glass walls, i.e., the inner surface of a glass body 10. When cells reach confluency, exposure can bc initiated. […] This can be accomplished by attaching primary cells to a sterile strip of inert mesh 38, e.g., nylon mesh, precoated with an attachment factor such as collagen. The mesh is carefully rolled and placed into body 10 through one of the openings 14 or 16. After the mesh is unrolled within body 10, the openings 14 and 1.6 are sealed using the septa or the valve 22 previously described.
The cells to be tested are washed and isolated using known procedures. The washed isolated cells are resuspended at a suitable cell density, e.g., about 10^6 to 10^7 /ml, in a suitable culture medium, e.g., Williams E or Leibovitz's-15. The culture medium may be supplemented with a suitable media supplement, e.g., fetal calf serum, dexamethasone, etc. The suspended cells are distributed over the mesh or over the inner surface of device 10. The cells are allowed to attach for a suitable period. If the mesh is used, it is rolled into a narrow tube, inserted into device 10 and allowed to unroll. Culture medium is added to the device 10 to a desired quantity. Scaling means 18 and 20 are inserted into openings 14 and 16. […]
A syringe needle is inserted through one of the sealing means 18 or 20 to provide egress for excess atmosphere within device 10. […] A sample of the atmosphere within device 10 is taken from each device prepared for testing and analyzed by gas-chromatography (GC) to determine the actual concentration of the volatile compound in the device.
The thus-prepared test device is placed on a roller apparatus in an incubator at a suitable temperature. […] At the termination exposure, a second sample of the atmosphere should be taken and analyzed by GC to ensure that the volatile compound is present at a concentration of at least about 95% of that measured initially. […]
As to `FC(F)(F)C(Cl)Cl` [HCFC-123, 2,2-dichloro-1,1,1-trifluoroethane], the “relative rank ordering of toxicity, based on lactate dehydrogenase (LDH) and S-amino-transferase (AST) enzyme leakages” value (from here on “relative rank ordering of toxicity”) is reported as “HCFC-123>HCFC-123/142b>HCFC-124>HCFC-142b”.

For the molecule `FC(Cl)C(F)(F)F` (stereo not drawn) [HCFC-124, 1-chloro-1,2,2,2-trifiuoroethane], the “relative rank ordering of toxicity” value is given as “HCFC-123>HCFC-123/142b>HCFC-124>HCFC-142b”.

On to `CC(F)(F)Cl` [HCFC-142b, 1-chloro-1,1-difluoroethane], for which the “relative rank ordering of toxicity” value was “HCFC-123>HCFC-123/142b>HCFC-124>HCFC-142b”.
